Molecular target: S. aureus DNA gyrase (Staphylococcus aureus, UniProt P0A0K8+P20831)
Test: DNA gyrase supercoiling assay, purified gyrase and relaxed plasmid DNA kit
Format: biochemical

| IC50 | Compound |
| --- | --- |
| 33.6 µM | COc1ccc(NC(=O)CNNC(=O)c2cc(-c3ccc(Br)cc3)nc3ccccc23)cc1 [6b, 2-(2-(2-(4-Bromophenyl)quinoline-4-carbonyl)hydrazinyl)-N-(4-methoxyphenyl)acetamide] |
| 8.45 µM | N=C1CC(N)=NN1C(=O)c1cc(-c2ccc(Br)cc2)nc2ccccc12 [compound 10, (3-Amino-5-imino-4,5-dihydro-1H-pyrazol-1-yl)(2-(4-bromophenyl)quinolin-4-yl)methanone] |

— PMC10210181 (ACS Omega, 2023)
